Test: Effects of oral water administration on ITE dosed mice
Assay type: in vivo
Parameters: key to feces appearance: Moderate; Dry
Conditions: for feces appearance (visual): after one week of dosing
Description: Oral injection of water was initiated at the same day i.p. administration of ITE was started. Daily oral gavage at 10 or 20 ml/kg was performed immediately following daily i.p. injection of ITE or DMSO continuously for the entire duration of the study. Both oral and i.p. injection were accidentally skipped at day 14 due to a mistake of the experimenter(s) and all of the other dosing were executed normally. Bodyweights (individual), food consumed (in group), feces weights (in group), and feces appearance (in group) were recorded every two days. Death of animal(s) and approximate cause of death etc. were also recorded.

[1] = ITE-H 300 mg/kg i.p. + Water-0, day 4
[2] = ITE-H 300 mg/kg i.p. + Water-0, day 6
[3] = ITE-H 300 mg/kg i.p. + Water-0, day 8
[4] = ITE-H 300 mg/kg i.p. + Water-0, day 10
[5] = ITE-H 300 mg/kg i.p. + Water-0, day 12
[6] = ITE-H 300 mg/kg i.p. + Water-0, day 14
[7] = ITE-H 300 mg/kg i.p. + Water-0, day 18 (line r16)
[8] = ITE-H 300 mg/kg i.p. + Water-0, day 18 (line r17)
[9] = ITE-H 300 mg/kg i.p. + Water-0, day 20
[10] = ITE-H 300 mg/kg i.p. + Water-0, day 22
[11] = ITE-H 300 mg/kg i.p. + Water-0, day 24
[12] = ITE-H 300 mg/kg i.p. + Water-0, day 26
[13] = ITE-H 300 mg/kg i.p. + Water-0, day 28
[14] = ITE-H 300 mg/kg i.p. + Water-0, day 30
[15] = ITE-H 300 mg/kg i.p. + Water-0, day 32
[16] = ITE-H 300 mg/kg i.p. + Water-0, day 34
[17] = ITE-H 300 mg/kg i.p. + Water-0, day 36
[18] = ITE-H 300 mg/kg i.p. + Water-H 20 ml/kg, day 4
[19] = ITE-H 300 mg/kg i.p. + Water-H 20 ml/kg, day 6
[20] = ITE-H 300 mg/kg i.p. + Water-H 20 ml/kg, day 8
[21] = ITE-H 300 mg/kg i.p. + Water-H 20 ml/kg, day 10
[22] = ITE-H 300 mg/kg i.p. + Water-H 20 ml/kg, day 12
[23] = ITE-H 300 mg/kg i.p. + Water-H 20 ml/kg, day 14
[24] = ITE-H 300 mg/kg i.p. + Water-H 20 ml/kg, day 18 (line r16)
[25] = ITE-H 300 mg/kg i.p. + Water-H 20 ml/kg, day 18 (line r17)
[26] = ITE-H 300 mg/kg i.p. + Water-H 20 ml/kg, day 20
[27] = ITE-H 300 mg/kg i.p. + Water-H 20 ml/kg, day 22
[28] = ITE-H 300 mg/kg i.p. + Water-H 20 ml/kg, day 24
[29] = ITE-H 300 mg/kg i.p. + Water-H 20 ml/kg, day 26
[30] = ITE-H 300 mg/kg i.p. + Water-H 20 ml/kg, day 28
[31] = ITE-H 300 mg/kg i.p. + Water-H 20 ml/kg, day 30
[32] = ITE-H 300 mg/kg i.p. + Water-H 20 ml/kg, day 32
[33] = ITE-H 300 mg/kg i.p. + Water-H 20 ml/kg, day 34
[34] = ITE-H 300 mg/kg i.p. + Water-L 10 ml/kg, day 4
[35] = ITE-H 300 mg/kg i.p. + Water-L 10 ml/kg, day 6
[36] = ITE-H 300 mg/kg i.p. + Water-L 10 ml/kg, day 8
[37] = ITE-H 300 mg/kg i.p. + Water-L 10 ml/kg, day 10
[38] = ITE-H 300 mg/kg i.p. + Water-L 10 ml/kg, day 12
[39] = ITE-H 300 mg/kg i.p. + Water-L 10 ml/kg, day 14
[40] = ITE-H 300 mg/kg i.p. + Water-L 10 ml/kg, day 18 (line r16)
[41] = ITE-H 300 mg/kg i.p. + Water-L 10 ml/kg, day 18 (line r17)
[42] = ITE-H 300 mg/kg i.p. + Water-L 10 ml/kg, day 20
[43] = ITE-H 300 mg/kg i.p. + Water-L 10 ml/kg, day 22
[44] = ITE-H 300 mg/kg i.p. + Water-L 10 ml/kg, day 24
[45] = ITE-H 300 mg/kg i.p. + Water-L 10 ml/kg, day 26
[46] = ITE-H 300 mg/kg i.p. + Water-L 10 ml/kg, day 28
[47] = ITE-H 300 mg/kg i.p. + Water-L 10 ml/kg, day 30
[48] = ITE-H 300 mg/kg i.p. + Water-L 10 ml/kg, day 32
[49] = ITE-H 300 mg/kg i.p. + Water-L 10 ml/kg, day 34

Compound: COC(=O)c1csc(C(=O)c2c[nH]c3ccccc23)n1 [ITE, 2-(1′H-indole-3′-carbonyl)-thiazole-4-carboxylic acid methyl ester]
- feces appearance (visual) (ITE high (300 mg/kg)): dry
- day at which one mouse died (ITE high dose (300 mg/kg) without oral water administration): 36 days
- feces appearance (visual) (ITE low (200 mg/kg)): dry
- day at which one mouse died (ITE low dose (200 mg/kg) without oral water administration): 28 days
- feces appearance [1]: M
- number of mice that died [1]: 0
- feces appearance [2]: M
- number of mice that died [2]: 0
- feces appearance [3]: D
- number of mice that died [3]: 0
- feces appearance [4]: D
- number of mice that died [4]: 0
- feces appearance [5]: D
- number of mice that died [5]: 0
- feces appearance [6]: D
- number of mice that died [6]: 0
- feces appearance [7]: D
- number of mice that died [7]: 0
- feces appearance [8]: D
- number of mice that died [8]: 0
- feces appearance [9]: D
- number of mice that died [9]: 0
- feces appearance [10]: D
- number of mice that died [10]: 0
- feces appearance [11]: D
- number of mice that died [11]: 0
- feces appearance [12]: D
- number of mice that died [12]: 0
- feces appearance [13]: D
- number of mice that died [13]: 0
- feces appearance [14]: D
- number of mice that died [14]: 0
- feces appearance [15]: D
- number of mice that died [15]: 0
- feces appearance [16]: D
- number of mice that died [16]: 0
- feces appearance [17]: D
- number of mice that died [17]: 1
- feces appearance [18]: M
- number of mice that died [18]: 0
- feces appearance [19]: M
- number of mice that died [19]: 0
- feces appearance [20]: D
- number of mice that died [20]: 0
- feces appearance [21]: D
- number of mice that died [21]: 0
- feces appearance [22]: D
- number of mice that died [22]: 0
- feces appearance [23]: D
- number of mice that died [23]: 0
- feces appearance [24]: D
- number of mice that died [24]: 0
- feces appearance [25]: D
- number of mice that died [25]: 0
- feces appearance [26]: D
- number of mice that died [26]: 0
- feces appearance [27]: D
- number of mice that died [27]: 0
- feces appearance [28]: D
- number of mice that died [28]: 0
- feces appearance [29]: D
- number of mice that died [29]: 0
- feces appearance [30]: M
- number of mice that died [30]: 0
- feces appearance [31]: M
- number of mice that died [31]: 0
- feces appearance [32]: M
- number of mice that died [32]: 0
- feces appearance [33]: M
- number of mice that died [33]: 0
- feces appearance [34]: M
- number of mice that died [34]: 0
- feces appearance [35]: M
- number of mice that died [35]: 0
- feces appearance [36]: D
- number of mice that died [36]: 0
- feces appearance [37]: D
- number of mice that died [37]: 0
- feces appearance [38]: D
- number of mice that died [38]: 0
- feces appearance [39]: D
- number of mice that died [39]: 0
- feces appearance [40]: D
- number of mice that died [40]: 0
- feces appearance [41]: D
- number of mice that died [41]: 0
- feces appearance [42]: D
- number of mice that died [42]: 0
- feces appearance [43]: D
- number of mice that died [43]: 0
- feces appearance [44]: D
- number of mice that died [44]: 0
- feces appearance [45]: D
- number of mice that died [45]: 0
- feces appearance [46]: M
- number of mice that died [46]: 0
- feces appearance [47]: M
- number of mice that died [47]: 0
- feces appearance [48]: M
- number of mice that died [48]: 0
- feces appearance [49]: M
- number of mice that died [49]: 0

From patent publication US10632106B2, “Methods of cancer treatment with 2-(1′H-Indole-3′-carbonyl)-thiazole-4-carboxylic acid methyl ester” (Ariagen, Inc., priority 2009, dated 2020)
